# Measured values from ChEMBL document CHEMBL1201862, “PubChem BioAssay data set” (2004).
# The source made the active and inactive calls.
# Legend:
# [1] = target: T1, Trace amine-associated receptor 1 (Homo sapiens, UniProt Q96RJ0); test: Counterscreen for agonists of the human trace amine associated receptor 1 (hTAAR1): Fluorescence-based cell-based high throughput dose response assay to identify hTAAR1 agonist that also desensitize TAAR1 receptor response.; format: functional
# T1 sequence (Q96RJ0 whole entry): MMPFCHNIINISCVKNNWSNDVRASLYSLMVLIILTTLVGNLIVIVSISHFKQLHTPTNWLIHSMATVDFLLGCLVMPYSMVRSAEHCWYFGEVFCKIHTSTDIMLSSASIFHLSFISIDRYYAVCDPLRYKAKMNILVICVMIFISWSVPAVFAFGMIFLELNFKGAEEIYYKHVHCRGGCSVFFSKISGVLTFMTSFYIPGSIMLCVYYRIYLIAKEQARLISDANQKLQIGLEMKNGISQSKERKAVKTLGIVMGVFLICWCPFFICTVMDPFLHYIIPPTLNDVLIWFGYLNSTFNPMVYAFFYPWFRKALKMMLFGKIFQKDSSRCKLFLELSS
# [2] = cells; format: functional, cell-based
# [3] = cells; format: functional, cell-based; remark: listed apart in the source
# [4] = target: T1, Trace amine-associated receptor 1; test: Fluorescence-based cell-based high throughput dose response assay to identify agonists of the human trace amine associated receptor 1 (TAAR1).; format: functional
# [5] = Cytotoxicity screening for potential Inhibitors of Bacterial Capsule Biogenesis (4).; format: functional
# [6] = viability loss in HEK293 cells – cell-based, plate reader, cherry-picked samples, cytotoxicity control, dose response (AID 743446); format: functional
# [7] = blockers of bursicon-stimulated LGR2 cAMP reporter – cell-based, HEK293, CRE-luciferase reporter, cherry pick, set 2, dose response (AID 743343); format: functional;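 note: transfected cells were stimulated with diluted bursicon conditioned medium after compound addition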
# [8] = blockade of melanocortin 4 receptor signaling – cell-based, plate reader, cherry pick, counter-screen for LGR2 antagonist project, dose response (AID 743444); format: functional;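 note: transfected HEK 293 cells stimulated with alpha-MSH peptide; potency of inhibitors of the alpha-MSH evoked signal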
# [9] = A549 cell cytotoxicity, dose response, cytotoxicity control, plate reader, cherry-pick, antagonist series (AID 743412); format: functional, cell-based
# [10] = toxicity toward HepG2 liver cells – cell-based, plate reader, cherry-pick, antagonist series, cytotoxicity control, dose response (AID 743416); format: functional
# [11] = viability of uninfected HEp-2 cells – cell-based, HTS, cytotoxicity control for RSV inhibitor project, dose response (AID 2410); format: functional; conditions: human respiratory syncytial virus
# [12] = target: T2, Methionyl-tRNA synthetase, putative (Trypanosoma brucei brucei, UniProt Q38C91); format: functional, Trypanosoma brucei brucei strain 927/4 GUTat10.1
# T2 sequence (Q38C91 whole entry): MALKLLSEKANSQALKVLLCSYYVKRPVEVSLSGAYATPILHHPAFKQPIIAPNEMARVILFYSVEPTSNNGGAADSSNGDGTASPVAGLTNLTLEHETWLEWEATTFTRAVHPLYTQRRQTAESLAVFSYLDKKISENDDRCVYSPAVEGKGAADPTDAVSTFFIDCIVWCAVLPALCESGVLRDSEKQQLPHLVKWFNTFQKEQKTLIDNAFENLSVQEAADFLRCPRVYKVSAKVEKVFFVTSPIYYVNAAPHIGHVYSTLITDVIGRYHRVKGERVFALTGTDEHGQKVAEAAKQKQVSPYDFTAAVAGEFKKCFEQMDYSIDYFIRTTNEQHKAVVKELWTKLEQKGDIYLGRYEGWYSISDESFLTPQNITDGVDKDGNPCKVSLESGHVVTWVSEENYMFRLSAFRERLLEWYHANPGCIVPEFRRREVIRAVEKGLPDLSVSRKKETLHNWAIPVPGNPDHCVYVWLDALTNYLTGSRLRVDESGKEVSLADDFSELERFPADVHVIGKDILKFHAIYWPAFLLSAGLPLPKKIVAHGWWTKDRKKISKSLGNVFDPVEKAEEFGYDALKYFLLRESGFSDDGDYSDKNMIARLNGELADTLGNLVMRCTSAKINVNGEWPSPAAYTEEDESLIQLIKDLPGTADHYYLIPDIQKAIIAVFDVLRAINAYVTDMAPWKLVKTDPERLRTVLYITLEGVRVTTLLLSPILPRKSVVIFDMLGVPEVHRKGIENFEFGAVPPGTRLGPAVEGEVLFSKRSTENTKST
# [13] = target: T2, Methionyl-tRNA synthetase, putative; format: functional, Trypanosoma brucei brucei strain 927/4 GUTat10.1; remark: listed apart in the source
# [14] = Counterscreen for inhibitors of Trypanosoma brucei methionyl tRNA synthetase (MetRS): Luminescence-based cell-based high throughput dose response assay to identify compounds that are cytotoxic to Jurkat human T lymphocyte cells.; format: functional
# [15] = target: T3, Low molecular weight phosphotyrosine protein phosphatase (Homo sapiens, UniProt P24666); format: functional; conditions: read-out: IC50_Mean
# T3 sequence (P24666 whole entry): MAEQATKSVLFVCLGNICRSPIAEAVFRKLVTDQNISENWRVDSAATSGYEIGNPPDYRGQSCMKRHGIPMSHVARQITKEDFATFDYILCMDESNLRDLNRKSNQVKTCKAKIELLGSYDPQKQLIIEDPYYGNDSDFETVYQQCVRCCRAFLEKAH
# [16] = target: T3, Low molecular weight phosphotyrosine protein phosphatase; format: functional; conditions: read-out: IC50_Mean; remark: listed apart in the source
# [17] = cytotoxicity in HEK293 background cells – cell-based, dry powder, set 2, counter-screen for EBV LMP1 inhibitor project, dose response (AID 624374); format: functional
# [18] = target: Beta-galactosidase (Escherichia coli, UniProt Q8VNN2); test: Dose response counterscreen for EBI2 assay utilizing the enzyme, b-galactosidase.; format: functional
# [19] = HIV-1 AD8 envelope cell-cell fusion blockers – cherry-pick, dose response (AID 652062); format: functional, cell-based;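 note: luciferase signal from cell-cell fusion driven by HIV-1 clade B AD8 Env; potency is for inhibitors of fusion seen as a drop in luminescence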
# [20] = blockers of HIV-1 ZM109 envelope-driven cell-cell fusion – HeLa effector, CEM target cells, luciferase, cherry-pick, dose response (AID 652058); format: functional, cell-based;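 note: luciferase signal from HIV-1 Env mediated cell-cell fusion of effector and target cells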
# [21] = off-target signal loss in HeLa-CEM21 co-culture – HeLa F-luc CTL cells, cherry-picked, counter-screen for HIV-1 Env fusion inhibitor project, dose response (AID 652040); format: functional, cell-based;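 note: potency for signal decrease marking cytotoxic or nonspecific inhibition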
# [22] = blockers of HIV-1 envelope-mediated cell-cell fusion – cherry-pick, dose response (AID 652057); format: functional, cell-based
# [23] = target: 5-hydroxytryptamine receptor 2A (Mus musculus, UniProt P35363); format: functional, cell-based;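 note: CHO-K1 cells with tagged receptor and beta-arrestin; agonist potency measured as compound-induced activation of the receptor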
# [24] = target: Mu-type opioid receptor (Homo sapiens, UniProt P35372); format: functional, cell-based;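 note: U2OS cells with beta-arrestin recruitment to OPRM1 by beta-gal complementation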
# [25] = system: Streptococcus sp. 'group A'; test: Streptococcus pyogenes SK(-)GAS viability under kanamycin – luminescence, BacTiterGlo, confirmation, counter-screen for streptokinase expression inhibitor project, dose response (AID 1900); format: functional, organism-based
# [26] = target: Albumin (Bos taurus, UniProt P02769); test: Counterscreen for inhibitors of T-cell receptor (TCR)-CD3 interaction: Fluorescence-based biochemical high throughput dose response assay to identify inhibitors of T-cell receptor (TCR)-CD3 interaction using a TAMRA-labeled BSA probe.; format: functional
# [27] = system: Streptococcus; test: GAS UMAA2166 growth inhibition – luminescence, BacTiterGlo, counter-screen for streptokinase expression inhibitor project, dose response (AID 1915); format: functional, organism-based;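 note: potency for reduction of bacterial viability or growth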
# [28] = target: T4, Heat shock factor protein 1 (Mus musculus, UniProt P38532); test: enhancement of HSF1-driven luciferase signal – cell-based, NIH3T3, luminescence, dose retest, confirmation (AID 435004); format: functional;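 note: stress induced by proteasome inhibitor MG132 added 30 min after compound; luciferase reporter driven by HSF1 response element in NIH3T3 cells; actives raise luminescence as potentiators of the MG132 stress response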
# T4 sequence (P38532 whole entry): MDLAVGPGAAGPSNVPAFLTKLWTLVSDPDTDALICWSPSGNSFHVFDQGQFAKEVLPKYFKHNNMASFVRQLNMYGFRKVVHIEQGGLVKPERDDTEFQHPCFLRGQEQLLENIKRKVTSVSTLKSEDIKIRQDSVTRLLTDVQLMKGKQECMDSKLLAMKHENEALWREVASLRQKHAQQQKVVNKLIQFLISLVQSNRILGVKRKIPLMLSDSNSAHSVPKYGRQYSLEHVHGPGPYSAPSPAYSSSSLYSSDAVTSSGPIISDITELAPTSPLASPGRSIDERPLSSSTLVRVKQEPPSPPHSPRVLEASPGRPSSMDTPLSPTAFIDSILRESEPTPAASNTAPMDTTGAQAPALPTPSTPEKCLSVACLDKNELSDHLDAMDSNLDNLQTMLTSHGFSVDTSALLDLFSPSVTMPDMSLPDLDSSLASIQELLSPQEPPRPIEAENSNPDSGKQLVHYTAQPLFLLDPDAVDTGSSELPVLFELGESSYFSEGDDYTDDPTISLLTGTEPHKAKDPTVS
# [29] = fluconazole-exposed Candida albicans growth modulators – fluorescence, retest, confirmation (AID 2467); format: functional, cell-based
# [30] = cells; format: functional
# [31] = microbe, parasite or virus in culture; format: functional; conditions: Mycobacterium tuberculosis
# [32] = THP-1 cell cytotoxicity, dose response, cytotoxicity control for non-replicating M. tuberculosis project (AID 489025); format: functional
# [33] = Vero E6 cell cytotoxicity, dose response, cytotoxicity control for non-replicating M. tuberculosis project, secondary assay (AID 492998); format: functional, VeroE6; conditions: Vero C1008
# [34] = NIH-3T3 fibroblast cytotoxicity, dose response, cytotoxicity control, cell-based, fluorescence, Alamar Blue, secondary assay (AID 2327); format: functional;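 note: NIH-3T3 mouse fibroblasts cultured with fluconazole at 8 µg/mL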
# Sequence of Beta-galactosidase (Q8VNN2 whole entry, the tested form may be a part): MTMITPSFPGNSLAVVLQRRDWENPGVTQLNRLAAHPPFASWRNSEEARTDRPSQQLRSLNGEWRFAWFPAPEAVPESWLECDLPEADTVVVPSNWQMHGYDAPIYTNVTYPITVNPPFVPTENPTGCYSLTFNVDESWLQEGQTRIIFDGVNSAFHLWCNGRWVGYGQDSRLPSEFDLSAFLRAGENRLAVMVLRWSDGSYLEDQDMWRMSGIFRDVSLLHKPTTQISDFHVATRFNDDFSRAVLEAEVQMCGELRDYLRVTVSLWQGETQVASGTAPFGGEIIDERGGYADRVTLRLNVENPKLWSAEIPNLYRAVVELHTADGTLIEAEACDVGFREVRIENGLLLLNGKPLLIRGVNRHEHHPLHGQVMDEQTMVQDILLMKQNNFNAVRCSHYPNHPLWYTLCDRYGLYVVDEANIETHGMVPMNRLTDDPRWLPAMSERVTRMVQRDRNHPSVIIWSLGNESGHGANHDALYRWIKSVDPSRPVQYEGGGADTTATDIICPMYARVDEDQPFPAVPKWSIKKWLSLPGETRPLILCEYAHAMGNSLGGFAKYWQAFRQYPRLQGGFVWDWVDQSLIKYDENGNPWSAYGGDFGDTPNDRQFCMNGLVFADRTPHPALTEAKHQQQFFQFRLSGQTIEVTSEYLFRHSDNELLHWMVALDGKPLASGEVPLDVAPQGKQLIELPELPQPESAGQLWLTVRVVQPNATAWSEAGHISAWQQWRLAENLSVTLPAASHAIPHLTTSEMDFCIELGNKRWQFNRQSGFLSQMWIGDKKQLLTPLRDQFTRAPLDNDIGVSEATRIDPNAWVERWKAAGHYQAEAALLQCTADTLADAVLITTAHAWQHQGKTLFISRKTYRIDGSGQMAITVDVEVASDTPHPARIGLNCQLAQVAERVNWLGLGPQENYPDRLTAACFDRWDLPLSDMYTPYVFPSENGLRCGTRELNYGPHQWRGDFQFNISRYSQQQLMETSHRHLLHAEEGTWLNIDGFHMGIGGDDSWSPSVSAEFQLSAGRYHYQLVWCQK
# Sequence of Albumin (P02769 whole entry): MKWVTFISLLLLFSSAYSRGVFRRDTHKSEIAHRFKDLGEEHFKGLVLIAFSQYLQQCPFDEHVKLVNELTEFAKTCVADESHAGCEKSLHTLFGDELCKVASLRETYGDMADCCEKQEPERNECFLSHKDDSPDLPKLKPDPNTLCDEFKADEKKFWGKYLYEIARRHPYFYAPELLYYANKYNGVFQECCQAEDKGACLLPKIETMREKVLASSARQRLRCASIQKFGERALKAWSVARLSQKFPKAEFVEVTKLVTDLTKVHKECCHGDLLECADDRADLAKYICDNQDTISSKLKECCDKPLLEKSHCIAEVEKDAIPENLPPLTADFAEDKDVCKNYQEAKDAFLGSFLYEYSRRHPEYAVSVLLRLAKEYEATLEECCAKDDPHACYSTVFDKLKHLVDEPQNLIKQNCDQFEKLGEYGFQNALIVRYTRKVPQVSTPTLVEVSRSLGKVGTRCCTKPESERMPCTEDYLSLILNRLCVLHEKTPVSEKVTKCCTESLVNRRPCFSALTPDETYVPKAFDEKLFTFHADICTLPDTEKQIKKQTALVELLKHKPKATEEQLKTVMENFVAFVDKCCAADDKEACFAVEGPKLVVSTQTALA
# Sequence of Mu-type opioid receptor (P35372 whole entry): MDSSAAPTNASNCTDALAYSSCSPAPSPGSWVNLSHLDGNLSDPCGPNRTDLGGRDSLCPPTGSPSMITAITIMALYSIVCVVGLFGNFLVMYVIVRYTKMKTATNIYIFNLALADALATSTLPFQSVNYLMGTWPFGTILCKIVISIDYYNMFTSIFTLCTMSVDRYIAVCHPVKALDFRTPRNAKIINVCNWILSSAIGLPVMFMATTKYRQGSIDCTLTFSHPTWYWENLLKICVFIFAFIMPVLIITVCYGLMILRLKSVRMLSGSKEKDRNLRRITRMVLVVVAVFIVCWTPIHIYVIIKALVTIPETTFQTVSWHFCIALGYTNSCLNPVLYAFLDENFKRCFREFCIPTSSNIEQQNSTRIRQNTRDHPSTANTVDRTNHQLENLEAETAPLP
# Sequence of 5-hydroxytryptamine receptor 2A (P35363 whole entry): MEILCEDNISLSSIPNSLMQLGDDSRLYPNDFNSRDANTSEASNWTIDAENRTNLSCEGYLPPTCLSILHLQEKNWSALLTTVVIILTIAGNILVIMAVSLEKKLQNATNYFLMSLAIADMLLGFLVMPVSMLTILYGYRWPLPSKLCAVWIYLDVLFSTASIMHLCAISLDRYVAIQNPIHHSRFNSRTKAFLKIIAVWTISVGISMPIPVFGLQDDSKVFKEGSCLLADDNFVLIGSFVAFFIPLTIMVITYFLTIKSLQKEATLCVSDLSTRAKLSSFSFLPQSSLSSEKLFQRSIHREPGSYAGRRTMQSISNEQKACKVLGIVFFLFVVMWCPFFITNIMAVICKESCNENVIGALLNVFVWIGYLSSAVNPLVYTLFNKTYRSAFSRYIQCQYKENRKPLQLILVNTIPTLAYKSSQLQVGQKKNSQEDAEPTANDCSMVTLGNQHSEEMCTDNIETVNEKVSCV
structure (smiles),measurement,setting,value
Cc1ccc(C)c(N2CN(CCC3=CCCCC3)CN=C2S)c1,IC50,[1],7.73 µM (active)
same,EC50,[2],> 29.9 µM (inactive)
same,IC50,[3],> 29.9 µM (inactive)
same,EC50,[4],4.03 µM (active)
Cc1cc(NC(=O)c2ccc3nc(NC(=O)OC(C)(C)C)sc3c2)ccn1,CC50,[5],96.8 µM (active)
CCC(=O)Nc1cccc(-c2ccc(N3CCC(C)CC3)nn2)c1,AC50,[6],35.7 µM (active)
same,AC50,[7],6.78 µM (active)
same,AC50,[8],10.3 µM (active)
same,AC50,[9],> 52 µM (inactive)
same,AC50,[10],> 52 µM (inactive)
same,CC50,[11],26.9 µM (active)
Cc1cnccc1NC(=O)c1ccc2ncsc2c1,CC50,[5],> 300 µM (inactive)
COc1ccc(NC(=O)CC2C(=O)N(C)C(=S)N2CCc2ccc(F)cc2)cc1 (centres undefined),IC50,[12],17.4 µM (inactive)
same,IC50,[13],6.36 µM (active)
same,IC50,[14],63.3 µM (inactive)
Cc1nccc(O)c1Cc1c(Cl)cccc1Cl,IC50,[15],11.5 µM (active)
same,IC50,[16],2.34 µM (active)
CO[C@@H]1CN(C)C(=O)c2ccc(NC(C)=O)cc2OC[C@@H](C)N(Cc2ccccc2F)C[C@H]1C,AbsAC35,[17],167.32 µM
COc1ccc(-n2nnnc2C(c2ccccc2OC(F)(F)F)N2CCN(C/C=C/c3ccccc3)CC2)cc1 (centres undefined),IC50,[18],> 80 µM (inactive)
COc1ccc(Nc2nc(-c3ccc4c(c3)NC(=O)CO4)cs2)cc1,IC50,[15],13.1 µM (active)
same,IC50,[16],54.9 µM (inactive)
O=C(C[C@@H]1CC[C@@H]2[C@H](COC[C@@H](O)CN2Cc2ccc(Oc3ccccc3)cc2)O1)N1CCc2ccccc2C1,AbsAC35,[17],79.64 µM
COc1ccc(-n2cc(-c3ccc(Cl)cc3)nc2S)cc1,IC50,[18],> 80 µM (inactive)
CC(CNC(=O)[C@H]1O[C@@H](n2cnc3c(=O)[nH]c(N)nc32)[C@H](O)[C@@H]1O)c1ccccc1 (some centres undefined),IC50,[1],3.77 µM (active)
same,EC50,[2],> 29.9 µM (inactive)
same,IC50,[3],> 29.9 µM (inactive)
same,EC50,[4],1.54 µM (active)
O=C(CCCCn1c(=O)[nH]c2ccccc2c1=O)N1CCN(c2cccc(C(F)(F)F)c2)CC1,AC50,[19],8.93 µM (active)
same,AC50,[20],3.8 µM (active)
same,AC50,[21],16 µM (active)
same,AC50,[22],11.1 µM (active)
COc1ccc(CN2CCN(C(=O)c3ccco3)CC2)cc1OC,EC50,[23],2.8 µM (active)
same,EC50,[24],92.5 µM (inactive)
COc1cc(/C=C(\C#N)C(N)=O)ccc1OS(=O)(=O)c1ccc(C)cc1,IC50,[18],> 80 µM (inactive)
Cc1cc(C(=O)N/N=C/c2cc(Br)cc([N+](=O)[O-])c2O)c2ccccc2n1,EC50,[25],1.36 µM (active)
same,IC50,[26],> 94.1 µM (inactive)
same,EC50,[27],1.5 µM (active)
Cn1c(CCCOc2ccc(Cl)cc2Cl)nnc1SCC(=O)Nc1cccc(F)c1,EC50,[28],181 µM (active)
same,IC50,[12],119 µM (inactive)
same,IC50,[13],52.2 µM (inactive)
same,IC50,[14],28.3 µM (inactive)
N#C[C@@H]1[C@H](c2ccc(C#Cc3ccccc3F)cc2)[C@@H](CO)N1C(=O)c1cccnc1,AbsAC35,[17],93.82 µM
Fc1cccc(CN2CCN(c3ncccn3)CC2)c1,EC50,[23],0.277 µM (active)
same,EC50,[24],92.5 µM (inactive)
Cc1cc2c(cc1S(=O)(=O)CCC(=O)NCCc1ccccc1)OCC(=O)N2,IC50,[1],5.78 µM (active)
same,EC50,[2],> 29.9 µM (inactive)
same,IC50,[3],> 29.9 µM (inactive)
same,EC50,[4],3.59 µM (active)
Cc1cc2oc3ccc(NCCCn4ccnc4)cc3c(=O)c2cc1C,EC50,[29],1.82 µM (active)
same,IC50,[30],27.9 µM (active)
same,IC50,[26],> 94.1 µM (inactive)
same,CC50,[31],12.4 µM (active)
same,CC50,[32],26.9 µM (active)
same,CC50,[33],14.6 µM (active)
same,EC50,[34],24.7 µM (active)
O=C(Nc1ccncc1F)c1ccc2ncsc2c1,CC50,[5],> 300 µM (inactive)
O=C(Cc1cccc(Cl)c1)Nc1ccc(Br)cc1,IC50,[12],11.1 µM (inactive)
same,IC50,[13],7.49 µM (active)
same,IC50,[14],83.3 µM (inactive)
